Data from patent publication US6201122A, “Fluoroaliphatic radical-containing anionic sulfonamido compounds” (3M Innovative Properties Company, priority 1992, dated 2001).

What was measured:
Format in all cases: physicochemical
[1] = foam volume of surfactant solutions (Hobart mixer, graduated cylinder); details: for Foam Volume: 200 mL of 500 ppm solution, Hobart mixer 3 minutes at medium speed; for foam volume relative to anionic Comparative Examples C4 to C7 (in words): 500 ppm, versus anionic Comparative Examples C4 to C7
Method: (§1) In the following Examples and Comparative Examples, fluoroaliphatic radical-containing compounds were prepared. The surface tension of water and isopropyl alcohol solutions containing these compounds was measured using a du Nouy tensiometer. The foaming properties of these solutions were also evaluated by generating foam and measuring the foam volume and half life.
(§2) Foam was generated from 200 mL of the 500 ppm solutions used for measuring surface tension. The surfactant solutions were mixed with a Hobart mixer for 3 minutes at medium speed. Foam volume (cubic centimeters of foam) was measured in a graduated cylinder. Foam half-life was measured as the seconds needed to drain 100 mL of solution from the foam.

[2] = foam half-life (seconds needed to drain 100 mL of solution from the foam); details: for Foam Half-Life: 200 mL of 500 ppm solution, seconds to drain 100 mL of solution from the foam; for foam half-life relative to anionic Comparative Examples C4 to C7 (in words): 500 ppm, versus anionic Comparative Examples C4 to C7
Method: as §1, §2

[3] = surface tension of aqueous solutions (du Nouy tensiometer); details: diluted from 10% solids in water/isopropyl alcohol; for Surface tension (dynes/cm) at 100 ppm: 100 ppm (0.01% solids) in deionized water; for Surface tension (dynes/cm) at 500 ppm: 500 ppm (0.05% solids) in deionized water
Method: as §1
The fluorochemical solutions obtained in Examples 1 to 6 and Comparative Examples C1 to C12 were diluted to 10% solids by dilution with a solution of 70% by volume water and 30% by volume isopropyl alcohol. Further dilutions to 0.01% solids (100 ppm), and 0.05% solids (500 ppm), were done with deionized water.

Row | SMILES | Foam Volume [1] | Foam Half-Life [2] | Surface tension (dynes/cm) at 100 ppm [3] | Surface tension (dynes/cm) at 500 ppm [3] | foam volume relative to anionic Comparative Examples C4 to C7 (in words) [1] | foam half-life relative to anionic Comparative Examples C4 to C7 (in words) [2]
1 | CCN(CC(=O)O)S(=O)(=O)C(F)(F)C(F)(F)C(F)(F)C(F)(F)C(F)(F)C(F)(F)C(F)(F)C(F)(F)F [Comparative Example C4] | 2600 cm^3 | 6.25 min | 19.7 dynes/cm | 16.4 dynes/cm | – | –
2 | CCN(CCC(=O)O)S(=O)(=O)C(F)(F)C(F)(F)C(F)(F)C(F)(F)C(F)(F)C(F)(F)C(F)(F)C(F)(F)F [Comparative Example C5] | 1500 cm^3 | 1.38 min | 24.3 dynes/cm | 20.7 dynes/cm | – | –
3 | CCN(CCC(=O)O)S(=O)(=O)C(F)(F)C(F)(F)C(F)(F)C(F)(F)C(F)(F)C(F)(F)C(F)(F)C(F)(F)F [Comparative Example C6] | 1900 cm^3 | 4.08 min | 19.9 dynes/cm | 17.5 dynes/cm | – | –
4 | CCN(CCC(=O)O)S(=O)(=O)C(F)(F)C(F)(F)C(F)(F)C(F)(F)C(F)(F)C(F)(F)C(F)(F)C(F)(F)F [Comparative Example C7] | 2200 cm^3 | 5 min | 19.1 dynes/cm | 17.2 dynes/cm | – | –
5 | CCN(CCC(=O)NCCC[N+](C)(C)CC)S(=O)(=O)C(F)(F)C(F)(F)C(F)(F)C(F)(F)C(F)(F)C(F)(F)C(F)(F)C(F)(F)F [Comparative Example C8] | 600 cm^3 | less than 30 sec. | 20.5 dynes/cm | 18.5 dynes/cm | – | –
6 | CCN(CCC(=O)NCCC[N+](C)(C)CCCS(=O)(=O)[O-])S(=O)(=O)C(F)(F)C(F)(F)C(F)(F)C(F)(F)C(F)(F)C(F)(F)C(F)(F)C(F)(F)F [Comparative Example C9] | 900 cm^3 | 0.583 min | 20.0 dynes/cm | 18.3 dynes/cm | – | –
7 | CC[N+](C)(CC)CCNS(=O)(=O)C(F)(F)C(F)(F)C(F)(F)C(F)(F)C(F)(F)C(F)(F)C(F)(F)C(F)(F)F [Comparative Example C11] | 2600 cm^3 | 5.33 min | 18.1 dynes/cm | 17.5 dynes/cm | – | –
8 | C[N+](C)(CCCNS(=O)(=O)C(F)(F)C(F)(F)C(F)(F)C(F)(F)C(F)(F)C(F)(F)F)CC(=O)[O-] [Comparative Example C12] | 2400 cm^3 | 5.33 min | 21.0 dynes/cm | 19.4 dynes/cm | – | –
9 | CC(C)(CS(=O)(=O)O)NC(=O)CCNCCNS(=O)(=O)C(F)(F)C(F)(F)C(F)(F)C(F)(F)C(F)(F)C(F)(F)C(F)(F)C(F)(F)F [Example 1] | 300 cm^3 | less than 30 sec. | 18.3 dynes/cm | 17.1 dynes/cm | much lower foam volume | significantly shorter foam half-life
10 | O=C(O)CCNCCNS(=O)(=O)C(F)(F)C(F)(F)C(F)(F)C(F)(F)C(F)(F)C(F)(F)C(F)(F)C(F)(F)F [Example 2] | 300 cm^3 | less than 30 sec. | 16.8 dynes/cm | 16.5 dynes/cm | much lower foam volume | significantly shorter foam half-life
11 | CC(C)(CS(=O)(=O)O)NC(=O)CCN1CCN(S(=O)(=O)C(F)(F)C(F)(F)C(F)(F)C(F)(F)C(F)(F)C(F)(F)C(F)(F)C(F)(F)F)CC1 [Example 3] | – | – | 20.3 dynes/cm | 18.5 dynes/cm | – | –
12 | CC(C)(CS(=O)(=O)O)NC(=O)CCNCCC[Si](C)(C)O[Si](C)(C)CCCNS(=O)(=O)C(F)(F)C(F)(F)C(F)(F)C(F)(F)F [Example 4] | – | – | – | 20.1 dynes/cm | – | –
13 | CCN(CCSC(CC(=O)O)C(=O)O)S(=O)(=O)C(F)(F)C(F)(F)C(F)(F)C(F)(F)C(F)(F)C(F)(F)C(F)(F)C(F)(F)F (stereo not drawn) [Example 6] | – | – | – | 19.3 dynes/cm | – | –
